Assay results: patent US11124517B2 (CRYSTAL PHARMACEUTICAL (SUZHOU) CO., LTD., priority 2017, dated 2021)
In brackets after ≈: the same amount, converted by molar mass.

How the values were obtained:
[1] = Bulk and tapped density of powder; format: physicochemical; details: for Bulk density (ρ0): about 500 mg in 5-mL measuring cylinder; for Tapped density (ρf): tapped 1250 times
Method: The density of powder is mainly referred to the bulk density and tapped density. The bulk density refers to the density obtained by dividing the mass of the powder by the volume of the powder in the container. The tapped density is obtained by dividing the mass of the powder by the volume of the powder which is tapped to the tightest state.
About 500 mg of Form G and the crystalline form of the prior art are added into a 5-mL measuring cylinder to measure the bulk volumes. The bulk density was calculated according to the equation: bulk density ρ0=powder mass/bulk volume. The samples were tapped 1250 times to make them in the tightest state and the tapped volumes were recorded. The tapped density was calculated according to tapped density ρf=powder mass/tapped volume.

[2] = Hygroscopicity by dynamic vapor sorption (DVS); format: physicochemical
Method: Dynamic vapor sorption (DVS) was applied to test hygroscopicity of Form G and the crystalline form of the prior art with about 10 mg of samples. The weight gains at each relative humidity were recorded in a cycle of 0-95%-0 RH.

[3] = Flowability by compressibility index (Carr index); format: physicochemical; details: graded from compressibility index
Method: Compressibility is usually used to evaluate the flowability of powder and granular intermediates during the formulation process, and is known as compressibility index (c). Compressibility index test method is as follows: a certain amount of powder was added into a measuring cylinder and bulk volume was recorded. Then the powder was tapped to make it in the tightest state, and the tapped volume was recorded. The bulk density (ρ0), tapped density (ρf) were calculated, and compressibility index was calculated according to c=(ρf−ρ0)/pf. Compressibility index, also known as Carr index, is an important index for evaluating flowability.
The test method of Compressibility index is as follows: Compressibility index was calculated according to bulk density ρ0 and tapped density ρf of Form G and the crystalline form of the prior art with c=(ρf−ρ0)/ρf*100%.

[4] = Kinetic solubility in biorelevant media and water (HPLC); details: thermodynamic from solid
Method: (§1) Simulated gastrointestinal fluids such as SGF (Simulated gastric fluids), FaSSIF (Fasted state simulated intestinal fluids) and FeSSIF (Fed state simulated intestinal fluids) are biorelevant media. […] 20 mg of Form G and 20 mg of crystalline form of the prior art were suspended into 1.5 mL of SGF, 1.5 mL of FaSSIF, 1.5 mL of FaSSIF and 1.5 mL of water to get saturated solutions. After equilibrated for 1 h, 4 h and 24 h, concentrations of the saturated solutions were measured by HPLC (mg/mL).

[5] = Adhesiveness: material sticking to the punch on tableting; format: physicochemical; details: 30 mg, φ8 mm round tooling, 10 KN, 30 s
Method: 30 mg of Form G and the crystalline form of the prior art were weighed and added into the dies of φ8 mm round tooling, tableted at 10 KN and held for 30 s. The amount of material sticking to the punch was weighed. The compression was repeated twice and the cumulative amount, maximum amount and average amount of material sticking to the punch during the compression process were recorded.

physchem = details: thermodynamic from solid
Method: as §1

[6] = Stability of Form G on storage, crystalline form checked by XRPD; format: physicochemical; details: for Crystalline form after storage: XRPD
From the text: Crystalline forms were checked by XRPD.

[7] = FaSSIF (fasted state simulated intestinal fluid), fassif
[8] = FeSSIF (fed state simulated intestinal fluid), fessif
[9] = SGF (simulated gastric fluid), simulated gastric fluid

SMILES: CCS(=O)(=O)N1CC(CC#N)(n2cc(-c3ncnc4[nH]ccc34)cn2)C1 [Crystalline form of the prior art, Baricitinib, reference compound]
- Bulk density (ρ0) [1]: 0.133 g/mL
- Tapped density (ρf) [1]: 0.204 g/mL
- Weight gain % ([2]; Relative humidity 0): 0%
- Weight gain % ([2]; Relative humidity 10%): 0.07%
- Weight gain % ([2]; Relative humidity 20%): 0.11%
- Weight gain % ([2]; Relative humidity 30%): 0.15%
- Weight gain % ([2]; Relative humidity 40%): 0.19%
- Weight gain % ([2]; Relative humidity 50%): 0.24%
- Weight gain % ([2]; Relative humidity 60%): 0.30%
- Weight gain % ([2]; Relative humidity 70%): 0.36%
- Weight gain % ([2]; Relative humidity 80%): 0.44%
- Weight gain % ([2]; Relative humidity 90%): 0.59%
- Weight gain % ([2]; Relative humidity 95%): 0.78%
- Flowability [3]: Very poor (32-37)
- Flowability ([3]; listed as the prior art form): very poor
- solubility kinetic at 1 h [4, 7]: 16 µg/mL (≈ 43.1 µM)
- solubility kinetic at 4 h [4, 7]: 18 µg/mL (≈ 48.5 µM)
- solubility kinetic at 24 h [4, 7]: 18 µg/mL (≈ 48.5 µM)
- solubility kinetic at 1 h [4, 8]: 35 µg/mL (≈ 94.2 µM)
- solubility kinetic at 4 h [4, 8]: 31 µg/mL (≈ 83.5 µM)
- solubility kinetic at 24 h [4, 8]: 33 µg/mL (≈ 88.8 µM)
- solubility kinetic at 1 h [4, 9]: 1900 µg/mL (≈ 5120 µM)
- solubility kinetic at 4 h [4, 9]: 1900 µg/mL (≈ 5120 µM)
- solubility kinetic at 24 h [4, 9]: 1900 µg/mL (≈ 5120 µM)
- solubility kinetic at 1 h ([4]; water): 8.9 µg/mL (≈ 24 µM)
- solubility kinetic at 4 h ([4]; water): 12 µg/mL (≈ 32.3 µM)
- solubility kinetic at 24 h ([4]; water): 13 µg/mL (≈ 35 µM)
- Average amount of material sticking to the punch [5]: 0.21 mg
- Cumulative amount of material sticking to the punch [5]: 0.41 mg
- Maximum amount of material sticking to the punch [5]: 0.43 mg

SMILES: CCS(=O)(=O)N1CC(CC#N)(n2cc(-c3ncnc4[nH]ccc34)cn2)C1 [Form G, Baricitinib]
- solubility kinetic at 1 h (physchem; fassif): 81 µg/mL (≈ 218 µM)
- solubility kinetic at 4 h (physchem; fassif): 100 µg/mL (≈ 269 µM)
- solubility kinetic at 24 h (physchem; fassif): 140 µg/mL (≈ 377 µM)
- solubility kinetic at 1 h (physchem; fessif): 130 µg/mL (≈ 350 µM)
- solubility kinetic at 4 h (physchem; fessif): 170 µg/mL (≈ 458 µM)
- solubility kinetic at 24 h (physchem; fessif): 220 µg/mL (≈ 592 µM)
- solubility kinetic at 1 h (physchem; simulated gastric fluid): 2600 µg/mL (≈ 7000 µM)
- solubility kinetic at 4 h (physchem; simulated gastric fluid): 2700 µg/mL (≈ 7270 µM)
- solubility kinetic at 24 h (physchem; simulated gastric fluid): 2800 µg/mL (≈ 7540 µM)
- solubility kinetic at 1 h (physchem; water): 52 µg/mL (≈ 140 µM)
- solubility kinetic at 4 h (physchem; water): 66 µg/mL (≈ 178 µM)
- solubility kinetic at 24 h (physchem; water): 96 µg/mL (≈ 258 µM)
- Time for which the form is stable ([6]; 25° C./60% RH (long term)): at least 6 months
- Crystalline form after storage ([6]; 25° C./60% RH, 6 months): Form G
- Time for which the form is stable ([6]; 40° C./75% RH (accelerated)): at least 6 months
- Crystalline form after storage ([6]; 40° C./75% RH, 6 months): Form G
- Time for which the form is stable ([6]; 60° C./75% RH): at least 1 week
- Crystalline form after storage ([6]; 60° C./75% RH, 1 week): Form G
- Time for which the form is stable ([6]; 80° C.): at least 1 week
- Crystalline form after storage ([6]; 80° C., 1 week): Form G
- Bulk density (ρ0) [1]: 0.538 g/mL
- Tapped density (ρf) [1]: 0.614 g/mL
- Weight gain % ([2]; Relative humidity 0): 0%
- Weight gain % ([2]; Relative humidity 10%): 0.01%
- Weight gain % ([2]; Relative humidity 20%): 0.03%
- Weight gain % ([2]; Relative humidity 30%): 0.04%
- Weight gain % ([2]; Relative humidity 40%): 0.06%
- Weight gain % ([2]; Relative humidity 50%): 0.07%
- Weight gain % ([2]; Relative humidity 60%): 0.10%
- Weight gain % ([2]; Relative humidity 70%): 0.15%
- Weight gain % ([2]; Relative humidity 80%): 0.21%
- Weight gain % ([2]; Relative humidity 90%): 0.27%
- Weight gain % ([2]; Relative humidity 95%): 0.34%
- Crystalline form change before and after DVS ([2]; XRPD overlay, cycle 0-95%-0 RH): no crystalline form change
- Average amount of material sticking to the punch [5]: 0.06 mg
- Cumulative amount of material sticking to the punch [5]: 0.12 mg
- Maximum amount of material sticking to the punch [5]: 0.12 mg
